In assay [1] the target is T1, Adrenergic β2 (Homo sapiens, UniProt P07550).
T1 construct: endogenous in cells; host or cells: H292 cells
Put plainly: Alternative Adrenergic β2 Mediated cAMP Production in H292 cells (AlphaScreen cAMP detection). Conditions: for EC50: cAMP, test compounds incubated 60 minutes, 300 μM rolipram, read-out: β2 pEC50 (converted); for β2 Int Act: fraction relative to the maximum activity determined for formoterol, 60 minutes incubation. The class given is cell-based. On the procedure: H292 cells were grown in 225 cm2 flasks incubator at 37° C., 5% CO2 in RPMI medium containing, 10% (v/v) FBS (foetal bovine serum) and 2 mM L-glutamine.
Adherent H292 cells were removed from tissue culture flasks by treatment with Accutase™ cell detachment solution for 15 minutes. Flasks were incubated for 15 minutes in a humidified incubator at 37° C., 5% CO2. Detached cells were re-suspended in RPMI media (containing 10% (v/v) FBS and 2 mM L-glutamine) at 0.05×10^6 cells per mL. 5000 cells in 100 μL were added to each well of a tissue-culture-treated 96-well plate and the cells incubated overnight in a humidified incubator at 37° C., 5% CO2. The culture media was removed and cells were washed twice with 100 μL assay buffer and replaced with 50 μL assay buffer (HBSS solution containing 10 mM HEPES pH7.4 and 5 mM glucose). […] Cells were incubated with rolipram for 10 minutes after which time test compounds were added and the cells were incubated for 60 minutes at room temperature. […] The reaction was stopped by removing supernatants, washing once with 100 μL assay buffer and replacing with 50 μL lysis buffer. The cell monolayer was frozen at −80° C. for 30 minutes (or overnight).
The concentration of cAMP (cyclic adenosine monophosphate) in the cell lysate was determined using AlphaScreen™ methodology. The frozen cell plate was thawed for 20 minutes on a plate shaker then 10 μL of the cell lysate was transferred to a 96-well white plate. 40 μL of mixed AlphaScreen™ detection beads pre-incubated with biotinylated cAMP, was added to each well and the plate incubated at room temperature for 10 hours in the dark. The AlphaScreen™ signal was measured using an EnVision spectrophotometer (Perkin-Elmer Inc.) with the recommended manufacturer's settings. cAMP concentrations were determined by reference to a calibration curve determined in the same experiment using standard cAMP concentrations. Concentration response curves for agonists were constructed and data was fitted to a four parameter logistic equation to determine both the pEC50 and Intrinsic Activity.

For assay [2], the target named is T2, recombinant human α1D receptor (Homo sapiens, UniProt P25100).
T2 construct: expressed in transfected cells; host or cells: HEK293
T2 sequence (P25100 1-572): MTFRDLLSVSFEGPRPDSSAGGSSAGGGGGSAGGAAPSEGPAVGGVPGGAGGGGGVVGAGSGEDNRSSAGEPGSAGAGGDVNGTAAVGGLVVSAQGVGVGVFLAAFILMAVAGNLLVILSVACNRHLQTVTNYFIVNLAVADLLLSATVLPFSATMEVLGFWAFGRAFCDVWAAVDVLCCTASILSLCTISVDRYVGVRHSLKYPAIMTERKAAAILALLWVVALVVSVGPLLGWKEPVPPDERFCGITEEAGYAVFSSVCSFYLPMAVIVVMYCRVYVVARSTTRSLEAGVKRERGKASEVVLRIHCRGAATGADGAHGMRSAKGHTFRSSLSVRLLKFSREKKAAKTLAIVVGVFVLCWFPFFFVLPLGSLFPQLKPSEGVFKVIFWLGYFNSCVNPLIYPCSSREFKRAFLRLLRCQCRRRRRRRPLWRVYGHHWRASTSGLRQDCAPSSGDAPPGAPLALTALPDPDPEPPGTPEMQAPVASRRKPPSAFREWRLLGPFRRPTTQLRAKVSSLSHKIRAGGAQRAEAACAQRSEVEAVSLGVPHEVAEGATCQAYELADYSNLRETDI
Put plainly: Adrenergic α1D selectivity assay, inhibition of [3H]-prazosin binding. The settings on record: HEK293 membranes, [3H]-prazosin 0.3 nM; read-out: α1 bind pIC50 (converted). On the procedure: Membranes were prepared from human embryonic kidney 293 (HEK293) cells expressing recombinant human α1D receptor. These were diluted in Assay Buffer (50 mM HEPES, 1 mM EDTA, 0.1% gelatin, pH 7.4) to provide a final concentration of membranes that gave a clear window between maximum and minimum specific binding.
(§1) Assays were performed in U-bottomed 96-well polypropylene plates. 10 μL [^3H]-prazosin (0.3 nM final concentration) and 10 μL of test compound (10× final concentration) were added to each test well. For each assay plate 8 replicates were obtained for [^3H]-prazosin binding in the presence of 10 μL vehicle (10% (v/v) DMSO in Assay Buffer; defining maximum binding) or 10 μL BMY7378 (10 μM final concentration; defining non-specific binding (NSB)). Membranes were then added to achieve a final volume of 100 μL. The plates were incubated for 2 hours at room temperature and then filtered onto PEI coated GF/B filter plates, pre-soaked for 1 hour in Assay Buffer, using a 96-well plate Tomtec cell harvester. Five washes with 250 μL wash buffer (50 mM HEPES, 1 mM EDTA, pH 7.4) were performed at 4° C. to remove unbound radioactivity. The plates were dried then sealed from underneath using Packard plate sealers and MicroScint-O (50 μL) was added to each well. The plates were sealed (TopSeal A) and filter-bound radioactivity was measured with a scintillation counter (TopCount, Packard BioScience) using a 3-minute counting protocol.
(§2) Total specific binding (B0) was determined by subtracting the mean NSB from the mean maximum binding. NSB values were also subtracted from values from all other wells.

Assay [3] concerns the target T3, recombinant human adrenergic beta 1 receptors (Homo sapiens, UniProt P08588).
T3 construct: purchased Euroscreen
Description: Adrenergic β1 selectivity assay, inhibition of [125I]-Iodocyanopindolol binding. On the procedure: Membranes containing recombinant human adrenergic beta 1 receptors were obtained from Euroscreen. These were diluted in Assay Buffer (50 mM HEPES, 1 mM EDTA, 120 mM NaCl, 0.1% gelatin, pH 7.4) to provide a final concentration of membranes that gave a clear window between maximum and minimum specific binding.
as §1, with “10 μL [^3H]-prazosin (0.3 nM final concentration) and 10 μL of test compound (10× final concentration) were added to each test well. For each assay plate 8 replicates were obtained for [^3H]-prazosin binding in the presence of 10 μL vehicle (10% (v/v) DMSO in Assay Buffer; defining maximum binding) or 10 μL BMY7378 (10 μM final concentration; defining non-specific binding (NSB)).” left out, “EDTA, 120 mM NaCl,” for “EDTA,”
as §2

Assay [4] concerns the target T4, recombinant human Dopamine Subtype D2s receptors (Homo sapiens, UniProt P14416).
T4 construct: purchased Perkin Elmer
Description: Dopamine D2 selectivity assay, inhibition of [3H]-spiperone binding. Conditions: membranes, [3H]-spiperone 0.16 nM; read-out: D2 bind pIC50 (converted). On the procedure: Membranes containing recombinant human Dopamine Subtype D2s receptors were obtained from Perkin Elmer. These were diluted in Assay Buffer ([…] HEPES, 1 mM EDTA, 120 mM NaCl, 0.1% gelatin, pH 7.4) to provide a final concentration of membranes that gave a clear window between maximum and minimum specific binding.
Assays were performed in U-bottomed 96-well polypropylene plates. […] For each assay plate 8 replicates were obtained for [^3H]-spiperone binding in the presence of 30 μL vehicle (10% (v/v) DMSO in Assay Buffer; defining maximum binding) or 30 μL Haloperidol (10 μM final concentration; defining non-specific binding (NSB)). Membranes were then added to achieve a final volume of 300 μL. The plates were incubated for 2 hours at room temperature and then filtered onto PEI coated GF/B filter plates, pre-soaked for 1 hour in Assay Buffer, using a 96-well plate Tomtec cell harvester. Five washes with 250 μL wash buffer (50 mM HEPES, 1 mM EDTA, 120 mM NaCl, pH 7.4) were performed at 4° C. to remove unbound radioactivity. The plates were dried then sealed from underneath using Packard plate sealers and MicroScint-O (50 μL) was added to each well. The plates were sealed (TopSeal A) and filter-bound radioactivity was measured with a scintillation counter (TopCount, Packard BioScience) using a 3-minute counting protocol. Total specific binding (B0) was determined by subtracting the mean NSB from the mean maximum binding. NSB values were also subtracted from values from all other wells.

Where [5] appears, read: membranes, [125I]-Iodocyanopindolol, read-out: β1 bind pIC50 (converted).

Counter-ions that a name gives are not always drawn. Like-named read-outs stand apart in the source and are kept apart here.

T1 sequence (P07550 whole entry): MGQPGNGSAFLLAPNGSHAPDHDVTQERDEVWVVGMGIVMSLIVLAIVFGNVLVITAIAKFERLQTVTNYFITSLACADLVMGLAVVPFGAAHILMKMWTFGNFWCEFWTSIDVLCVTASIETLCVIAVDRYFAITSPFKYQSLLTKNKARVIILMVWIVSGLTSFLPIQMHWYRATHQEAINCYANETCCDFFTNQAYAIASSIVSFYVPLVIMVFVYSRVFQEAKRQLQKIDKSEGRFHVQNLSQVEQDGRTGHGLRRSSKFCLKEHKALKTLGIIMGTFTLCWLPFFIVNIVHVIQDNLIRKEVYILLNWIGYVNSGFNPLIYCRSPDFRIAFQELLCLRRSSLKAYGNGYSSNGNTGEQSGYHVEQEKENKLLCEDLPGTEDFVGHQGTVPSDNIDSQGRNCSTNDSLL
T3 sequence (P08588 whole entry): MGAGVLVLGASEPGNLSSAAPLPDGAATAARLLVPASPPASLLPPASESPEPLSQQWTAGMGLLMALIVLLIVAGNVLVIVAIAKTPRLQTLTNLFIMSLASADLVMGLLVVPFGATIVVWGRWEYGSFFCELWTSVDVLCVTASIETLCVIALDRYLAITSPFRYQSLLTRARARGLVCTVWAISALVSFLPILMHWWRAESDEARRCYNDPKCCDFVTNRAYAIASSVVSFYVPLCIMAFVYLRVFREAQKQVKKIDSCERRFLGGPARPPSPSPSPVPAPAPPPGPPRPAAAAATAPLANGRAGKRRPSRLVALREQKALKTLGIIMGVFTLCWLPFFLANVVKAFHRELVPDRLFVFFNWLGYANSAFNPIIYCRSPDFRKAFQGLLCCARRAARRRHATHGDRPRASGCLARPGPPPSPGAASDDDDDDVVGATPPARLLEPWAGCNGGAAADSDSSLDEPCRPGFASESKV
T4 sequence (P14416 1-414 isoform P14416-2): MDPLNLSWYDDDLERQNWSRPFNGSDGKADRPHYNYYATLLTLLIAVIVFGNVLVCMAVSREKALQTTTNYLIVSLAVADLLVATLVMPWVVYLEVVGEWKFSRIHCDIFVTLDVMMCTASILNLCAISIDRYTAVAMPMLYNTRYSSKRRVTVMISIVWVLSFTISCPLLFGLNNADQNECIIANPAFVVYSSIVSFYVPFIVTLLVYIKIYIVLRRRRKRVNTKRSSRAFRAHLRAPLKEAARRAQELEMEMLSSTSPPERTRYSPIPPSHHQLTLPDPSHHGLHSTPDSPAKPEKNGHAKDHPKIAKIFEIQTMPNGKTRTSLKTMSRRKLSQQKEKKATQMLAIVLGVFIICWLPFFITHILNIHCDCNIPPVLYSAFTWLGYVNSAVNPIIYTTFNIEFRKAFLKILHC

For `CC(CNCCCSCCNC[C@H](O)c1ccc(O)c2[nH]c(=O)sc12)c1ccccc1` (mixture of isomers) [Example 44, (+/−)-7-[(1R)-2-({2-[(3-{[2-(phenyl)propyl]amino}propyl)thio]ethyl}amino)-1-hydroxyethyl]-4-hydroxy-1,3-benzothiazol-2(3H)-one dihydrochloride], the EC50 in assay [1] was 0.631 nM. Moreover, in assay [1], the “β2 Int Act” value is 0.8. The IC50 was 398 nM in assay [2], 79.4 nM in assay [3] (setting [5]) and 12600 nM in assay [4].

With `N[C@@H](COCCCSCCNC[C@H](O)c1ccc(O)c2[nH]c(=O)sc12)c1ccccc1` [Example 24, 7-((1R)-2-{[2-({3-[(2R)-2-Amino-2-phenylethoxy]propyl}thio)ethyl]amino}-1-hydroxyethyl)-4-hydroxy-1,3-benzothiazol-2(3H)-one], the EC50 in assay [1] was 0.398 nM. The “β2 Int Act” value in assay [1] is listed as 0.8. The results for the IC50 in assay [2], in assay [3] (setting [5]) and in assay [4] were 158 nM, 79.4 nM and 631 nM, respectively.

Consider `C[C@@H](CNCCSCCCNC[C@H](O)c1ccc(O)c2[nH]c(=O)sc12)c1ccccc1` [Example 27, 4-Hydroxy-7-[(1R)-1-hydroxy-2-({3-[(2-{[(2R)-2-phenylpropyl]amino}ethyl)thio]propyl}amino)ethyl]-1,3-benzothiazol-2(3H)-one], for which the EC50 in assay [1] was 1 nM. Moreover, the “β2 Int Act” value in assay [1] came to 1. The figures for the IC50 in assay [2], in assay [3] (setting [5]) and in assay [4] were 126 nM, 63.1 nM and 1000 nM, respectively.

With `C[C@H](CNCCSCCCNC[C@H](O)c1ccc(O)c2[nH]c(=O)sc12)c1ccccc1` [Example 29, 4-Hydroxy-7-[(1R)-1-hydroxy-2-({3-[(2-{[(2S)-2-phenylpropyl]amino}ethyl)thio]propyl}amino)ethyl]-1,3-benzothiazol-2(3H)-one], the EC50 in assay [1] is 0.316 nM. In addition, the “β2 Int Act” value in assay [1] was found to be 0.9. Besides, the IC50 was 100 nM in assay [2], 25.1 nM in assay [3] (setting [5]) and 3980 nM in assay [4].

With `O=c1[nH]c2c(O)ccc([C@@H](O)CNCCCSCCNCCc3ccccc3Cl)c2s1` [Example 31, 7-[(1R)-2-({3-[(2-{[2-(2-Chlorophenyl)ethyl]amino}ethyl)thio]propyl}amino)-1-hydroxyethyl]-4-hydroxy-1,3-benzothiazol-2(3H)-one], the EC50 in assay [1] was 0.398 nM. Besides, the “β2 Int Act” value in assay [1] is reported as 0.8. The IC50 is 12.6 nM in assay [2], 39.8 nM in assay [3] (setting [5]) and 1580 nM in assay [4].

As for `O=c1[nH]c2c(O)ccc([C@@H](O)CNCCCSCCNCCc3cccc(Cl)c3)c2s1` [Example 33, 7-[(1R)-2-({3-[(2-{[2-(3-Chlorophenyl)ethyl]amino}ethyl)thio]propyl}amino)-1-hydroxyethyl]-4-hydroxy-1,3-benzothiazol-2(3H)-one], the “β2 Int Act” value in assay [1] is given as 1.1. Moreover, the IC50 was 39.8 nM in assay [2] and 1000 nM in assay [4].

Consider `O=c1[nH]c2c(O)ccc([C@@H](O)CNCCSCCCNCCc3cccc(Cl)c3Cl)c2s1` [Example 38, 7-[(1R)-2-({2-[(3-{[2-(2,3-Dichlorophenyl)ethyl]amino}propyl)thio]ethyl}amino)-1-hydroxyethyl]-4-hydroxy-1,3-benzothiazol-2(3H)-one dihydrochloride], for which, in assay [1], the EC50 was 1.58 nM. In assay [1], the “β2 Int Act” value was determined as 0.9. In addition, the IC50 was 158 nM in assay [2] and 398 nM in assay [4].

For the compound `O=c1[nH]c2c(O)ccc([C@@H](O)CNCCS(=O)(=O)CCCNCCc3cccc(Cl)c3)c2s1` [Example 42, 7-[(1R)-2-({2-[(3-{[2-(3-Chlorophenyl)ethyl]amino}propyl)sulfonyl]ethyl}amino)-1-hydroxyethyl]-4-hydroxy-1,3-benzothiazol-2(3H)-one dihydrochloride], the “β2 Int Act” value in assay [1] was 1. Moreover, the IC50 in assay [2] is 126 nM; in assay [3], 794 nM; in assay [4], 10000 nM.

Consider `C[C@@H](CNCCCSCCNC[C@H](O)c1ccc(O)c2[nH]c(=O)sc12)c1ccccc1` [Example 46, (R)-(+)-7-[(1R)-2-({2-[(3-{[2-(phenyl)propyl]amino}propyl)thio]ethyl}amino)-1-hydroxyethyl]-4-hydroxy-1,3-benzothiazol-2(3H)-one dihydrochloride], for which the EC50 in assay [1] was 0.631 nM. Also, the “β2 Int Act” value in assay [1] was 0.8. Besides, the IC50 is 251 nM in assay [2], 79.4 nM in assay [3] (setting [5]) and 1260 nM in assay [4].

The record behind these values is patent US20090221653A1, “7-(2-amino-1-hydroxy-ethyl)-4-hydroxybenzothiazol-2(3H)-one-derivatives as beta2 adrenoreceptor agonists” (AstraZeneca AB, priority 2005, published 2009).
